Laboratory results published in paper PMC10485906, “Development of a Dihydroquinoline–Pyrazoline GluN2C/2D-Selective Negative Allosteric Modulator of the N-Methyl-D-aspartate Receptor” (ACS Chemical Neuroscience, 2023).

assay: Kinetic solubility in PBS (nephelometer); format: physicochemical; conditions: Dulbecco's phosphate-buffered saline (DPBS), 25 °C, pH 7.2, aqueous buffer, kinetic from dmso stock, 1% DMSO, room temperature, n = 7
Text: Anticipating that the carboxylate side chain may hinder BBB penetrance, we synthesized and biologically screened a series of 2i prodrugs with ester and amide masking groups. With the classical physiochemical parameters required for brain exposure (i.e., molecular weight, MW, lipophilicity, and topological polar surface area, TPSA) and drug release mechanisms beyond the BBB in mind, we focused on simple alkyl-based promoieties. Our selected lead compound (2i), a close analogue (2a), and their corresponding prodrugs (2l–r) were studied in vitro to ascertain drug solubility, metabolic stability in liver microsomes (LMs), plasma stability, mouse brain homogenate stability, and cytochrome P450 (CYP450) inhibition (Tables S3 and S4 for predicted absorption, distribution, metabolism, and excretion or ADME parameters). […]
Methods for Kinetic Solubility Experiments
The test compounds were first dissolved in DMSO to provide stock solutions of either 30 mM or 60 mM. Kinetic solubility experiments were then performed in a 96-well microtiter plate (Clear-Bottom, Black, Corning® Costar) with a final volume of 250 µL per well in rows B-H. Each plate was initially prepared with the addition of 16 μL of DMSO to well A3, 20 μL to well A4, 27 μL to well A5, and 40 μL to all remaining wells in row A (A1 and A6-12). Next, the test compound (30 μL of DMSO stock solution) was directly added to well A2 without further modification. Moreover, the test compound (64 μL of DMSO stock solution) was diluted in well A3 to give a total volume of 80 μL. Further dilutions were then conducted by removing 60 µL from well A3 and adding it to A4, followed by removing 53 µL from well A4 and adding it to A5, followed by removing 40 µL from well A5 and adding it to A6, and sequentially removing 40 µL from the remaining wells up to A12. Well A1 served as a DMSO blank.
The sample solutions prepared in row A (2.5 µL from each well) were transferred to the corresponding wells in rows B-H. Dulbecco’s phosphate-buffered saline (DPBS, Gibco®, 1X, no Ca2+ and Mg2+, pH […]
7.1-7.3) was then added to all wells in rows B-H (30 µL each), and the 96-well plate was incubated at 25 °C for 1 min. Next, DPBS (217.5 µL) was added to all wells in rows B-H, and the 96-well plate was once more incubated at 25 °C for 2 h. This procedure provided seven replicate experiments with final concentrations of the test compound (1% DMSO in DPBS) ranging from either 300 to 0.9375 µM or 600 to 1.875 µM in rows B-H, depending on the whether a 30 mM or 60 mM DMSO stock solution was used, respectively (i.e. a 100-fold dilution from sample preparation in row A). After incubation, the plates were analyzed using a NEPHELOstar® microplate reader, and the segmental linear regression data was processed with MARS analysis software (BMG LabTech, see Supplemental Figure S4A for a representative example). […]
Synergy-S diffractometer. The crystal was kept at a steady T = 100.0(3) K during data collection. The structure was solved with the ShelXT 2018/2 (Sheldrick, 2015, Bauer and Gotz, 2021) solution program using dual methods and by using Olex2 1.5-alpha (Dolomanov et al., 2009) as the graphical interface.
The model was refined with olex2.refine 1.5-alpha (Bourhis et al., 2015) using full matrix least squares […]
which were used in all calculations. The final wR2 was 0.0983 (all data) and R1 was 0.0412 (I≥2 s(I)).

Row | Structure (SMILES) | solubility kinetic at 2 h [µM]
1 | O=C(O)CCC(=O)N1N=C(c2c(-c3ccc(Cl)cc3)c3ccccc3[nH]c2=O)CC1c1ccc(Cl)cc1 (stereo not shown) [2a] | ~208
2 | O=C(O)CC(F)(F)C(=O)N1N=C(c2c(-c3ccc(Cl)cc3)c3ccccc3[nH]c2=O)CC1c1ccc(Cl)cc1 (stereo not shown) [2i] | ~38
3 | NC(=O)CC(F)(F)C(=O)N1N=C(c2c(-c3ccc(Cl)cc3)c3ccccc3[nH]c2=O)CC1c1ccc(Cl)cc1 (stereo not shown) [2k] | ~30
4 | O=C(CC(F)(F)C(=O)N1N=C(c2c(-c3ccc(Cl)cc3)c3ccccc3[nH]c2=O)CC1c1ccc(Cl)cc1)OCC1CC1 (stereo not shown) [2n] | 27 ± 9
5 | CC(C)(C)COC(=O)CC(F)(F)C(=O)N1N=C(c2c(-c3ccc(Cl)cc3)c3ccccc3[nH]c2=O)CC1c1ccc(Cl)cc1 (stereo not shown) [2o] | 52 ± 6.3

Now from value to molecule:

Row | solubility kinetic at 2 h [µM] | Structure (SMILES)
6 | 43 ± 18 | CCOC(=O)CC(F)(F)C(=O)N1N=C(c2c(-c3ccc(Cl)cc3)c3ccccc3[nH]c2=O)CC1c1ccc(Cl)cc1 (stereo not shown) [2l]
7 | 43 ± 10 | CC(C)OC(=O)CC(F)(F)C(=O)N1N=C(c2c(-c3ccc(Cl)cc3)c3ccccc3[nH]c2=O)CC1c1ccc(Cl)cc1 (stereo not shown) [2m]
8 | 40 ± 12 | O=C(CC(F)(F)C(=O)N1N=C(c2c(-c3ccc(Cl)cc3)c3ccccc3[nH]c2=O)CC1c1ccc(Cl)cc1)OCc1ccccc1 (stereo not shown) [2p]
9 | 52 ± 13 | CNC(=O)CC(F)(F)C(=O)N1N=C(c2c(-c3ccc(Cl)cc3)c3ccccc3[nH]c2=O)CC1c1ccc(Cl)cc1 (stereo not shown) [2q]
10 | 43 ± 5.1 | CN(C)C(=O)CC(F)(F)C(=O)N1N=C(c2c(-c3ccc(Cl)cc3)c3ccccc3[nH]c2=O)CC1c1ccc(Cl)cc1 (stereo not shown) [2r]
